Laboratory results taken from PubChem BioAssay AID2060613 (Molecular Pharmacology Branch, DTP, NCI, 2025).
pIC50: −log10 of the molar value. “And” between values parts separate entries of the source, which are not always exact repeats. Equal entries are not always repeated.

Tested on: 233499-124-R-J3-PDC complex spheroid viability
Assay: Anticancer human tumor 233499-124-R-J3-PDC patient-derived colon adenocarcinoma cell line growth inhibition [CLK]
Conditions: for viability, T/C: stronger effect = lower value
From the text: A high-throughput screen of multi-cell type tumor spheroids was designed to identify active combinations of […] and targeted small molecules. Complex spheroids include a stromal component modeled by human endothelial cells (HUVEC) and fibroblasts modeled by human mesenchymal stem cells (MSCs). The concentration ranges selected for each drug and investigational agent were based upon clinically achievable concentrations if the clinical Cmax of the agent was known.
Compounds. The drugs and investigational agents: cirtuvivint (SM08502; NSC835563), CC-671 (NSC850746), vemurafenib (NSC761431), tapotoclax (NSC804041), sotorasib (NSC818433), adagrasib (NSC831453), MRTX-1133 (NSC836407), BAY2416964 (NSC825713), copanlisib (NSC816437), inavolisib (NSC800729), abemaciclib (NSC768073), osimertinib (NSC779217), entinostat (NSC756642), eltanexor (KPT-8602, NSC794443), venetoclax (NSC766270), ceralasertib (NSC777638), bortezomib (NSC756655), olaparib (NSC753686), talazoparib (NSC767125), alisertib (NSC759677), peposertib (NSC802822), gemcitabine (NSC613327), 5-fluorouracil (NSC19893), SN-38 (NSC673596), oxaliplatin (NSC266046), paclitaxel (NSC125973), and doxorubicin (NSC123127), were obtained from the National Cancer Institute (NCI) Developmental Therapeutics Program Chemical Repository. The FDA-approved anticancer drug set is available from the Developmental Therapeutics Program at https://dtp.cancer.gov/organization/dscb/obtaining/available plates.htm. […] The stock solutions were prepared in dimethyl sulfoxide (DMSO, Sigma-Aldrich, St. Louis, MO, cat. D2650), except for the platinum complexes which were prepared in saline (Quality Biological, Gaithersburg, MD, cat. 114-055-101), at 800-fold the tested concentration and stored at -70 degrees C prior to their use. All drugs and investigational agents were tested over a range starting from a high concentration at or near the clinical Cmax and decreasing in half-log increments. If the clinical Cmax for an agent had not been determined, the highest concentration tested was 10 microM.
Cell Culture. All cells were maintained in an incubator at 37 degrees C and 5% CO2 with 95% humidity. The PDC lines were cultured according to standard operating procedures established by the NCI PDMR. Briefly, all PDCs were thawed and cultured in Matrigel-coated flasks prepared with a working solution of 1X Ham's F-12 nutrient mix, without supplementation (Invitrogen, Waltham, MA, cat. 11765054), 100 U/mL penicillin-streptomycin (Invitrogen, cat. 15140122), and 2.5% Matrigel (Corning Inc., Corning, NY, cat. 354248) for the first three passages. The 947758-054-R-J2-PDC line was cultured in 6B/Colon 1A media, which includes advanced DMEM/F-12 (Thermo Fisher Scientific, cat. 12634028), 10 mM HEPES (Thermo Fisher Scientific, cat. 15630080), 1X GlutaMAX supplement (Thermo Fisher Scientific, cat. 35050061), 0.1 mg/mL primocin (InvivoGen, cat. ant-pm-2), 10% defined fetal bovine serum, heat inactivated (HyClone Laboratories Inc., cat. SH30070.03HI), 1.25 mM N-Acetyl-L-cysteine (Sigma-Aldrich, cat. A9165), 10 mM nicotinamide (Sigma-Aldrich, cat. N0636), 1X B-27 supplement (Thermo Fisher Scientific, cat. 17504044), 1X N-2 supplement (Thermo Fisher Scientific, cat. 17502048), and 10 microM Y-27632 dihydrochloride (Tocris Bioscience, cat. 1254). The 876862-298-R-J1-PDC was cultured in 6E media, which includes all 6B/Colon 1A media components plus 50% L-WRN conditioned media (ATCC, cat. CRL-3276), 50 ng/mL recombinant human EGF recombinant protein (hEGF; Thermo Fisher Scientific, cat. PHG0311), 10 ng/mL recombinant human fibroblast growth factor 10 (hGFG-10; PeproTech, cat. 100-26), 1 ng/mL recombinant human fibroblast growth factor 2 (hFGF-2; PeproTech, cat. 100-18B), and 1 µM prostaglandin E2 (PGE2; Tocris, cat. 2296). The 227483-062-R1-J1-PDC line was cultured in Panc media, containing all 6E components except hFGF-2, with the addition of 500 nM SB-431542 (Selleckchem, cat. S1067) and 10 nM gastrin (Tocris, cat. 3006). […]

[1] = curve of first compound, second compound 0.0316 µM
[2] = curve of first compound, second compound 0.1 µM
[3] = curve of first compound, second compound 0.316 µM
[4] = curve of first compound, second compound 1 µM
[5] = curve of first compound, second compound 3.16 µM
[6] = curve of first compound, second compound 10 µM
[7] = second compound 0.0316 µM, first compound 0.0316 µM
[8] = second compound 0.0316 µM, first compound 0.1 µM
[9] = second compound 0.0316 µM, first compound 0.316 µM
[10] = second compound 0.0316 µM, first compound 1 µM
[11] = second compound 0.0316 µM, first compound 3.16 µM
[12] = second compound 0.0316 µM, first compound 10 µM
[13] = second compound 0.1 µM, first compound 0.0316 µM
[14] = second compound 0.1 µM, first compound 0.1 µM
[15] = second compound 0.1 µM, first compound 0.316 µM
[16] = second compound 0.1 µM, first compound 1 µM
[17] = second compound 0.1 µM, first compound 3.16 µM
[18] = second compound 0.1 µM, first compound 10 µM
[19] = second compound 0.316 µM, first compound 0.0316 µM
[20] = second compound 0.316 µM, first compound 0.1 µM
[21] = second compound 0.316 µM, first compound 0.316 µM
[22] = second compound 0.316 µM, first compound 1 µM
[23] = second compound 0.316 µM, first compound 3.16 µM
[24] = second compound 0.316 µM, first compound 10 µM
[25] = second compound 1 µM, first compound 0.0316 µM
[26] = second compound 1 µM, first compound 0.1 µM
[27] = second compound 1 µM, first compound 0.316 µM
[28] = second compound 1 µM, first compound 1 µM
[29] = second compound 1 µM, first compound 3.16 µM
[30] = second compound 1 µM, first compound 10 µM
[31] = second compound 3.16 µM, first compound 0.0316 µM
[32] = second compound 3.16 µM, first compound 0.1 µM
[33] = second compound 3.16 µM, first compound 0.316 µM
[34] = second compound 3.16 µM, first compound 1 µM
[35] = second compound 3.16 µM, first compound 3.16 µM
[36] = second compound 3.16 µM, first compound 10 µM
[37] = second compound 10 µM, first compound 0.0316 µM
[38] = second compound 10 µM, first compound 0.1 µM
[39] = second compound 10 µM, first compound 0.316 µM
[40] = second compound 10 µM, first compound 1 µM
[41] = second compound 10 µM, first compound 3.16 µM
[42] = second compound 10 µM, first compound 10 µM
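Further: spheroids exposed to the drug combinations for seven days.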
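Wherever viability, T/C is given: percent viability relative to DMSO vehicle control wells taken as 100%.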

## CC(=O)O[C@H]1C(=O)[C@@]2(C)[C@H]([C@H](OC(=O)c3ccccc3)[C@]3(O)C[C@H](OC(=O)[C@H](O)[C@@H](NC(=O)c4ccccc4)c4ccccc4)C(C)=C1C3(C)C)[C@]1(OC(C)=O)CO[C@@H]1C[C@@H]2O + CN1CCN(c2cc(C(=O)Nc3cc4cc(-c5cnn(C)c5)ccc4cn3)ccn2)CC1
[1]
  pIC50: 7.16
[2]
  pIC50: 7.24
[3]
  pIC50: 7.40
[4]
  pIC50: > 7.50
[5]
  pIC50: > 7.50
[6]
  pIC50: > 7.50
[7]
  viability, T/C: 79.9%
[8]
  viability, T/C: 36.4%
[9]
  viability, T/C: 15.7%
[10]
  viability, T/C: 14.2%
[11]
  viability, T/C: 14.4%
[12]
  viability, T/C: 21.8%
[13]
  viability, T/C: 77.1%
[14]
  viability, T/C: 25.5%
[15]
  viability, T/C: 11.9%
[16]
  viability, T/C: 10.2%
[17]
  viability, T/C: 12%
[18]
  viability, T/C: 15.1%
[19]
  viability, T/C: 57.5%
[20]
  viability, T/C: 18.2%
[21]
  viability, T/C: 15.6%
[22]
  viability, T/C: 11.5%
[23]
  viability, T/C: 13.8%
[24]
  viability, T/C: 11.9%
[25]
  viability, T/C: 0.76%
[26]
  viability, T/C: 1.44%
[27]
  viability, T/C: 1.17%
[28]
  viability, T/C: 1.02%
[29]
  viability, T/C: 0.56%
[30]
  viability, T/C: 0.53%
[31]
  viability, T/C: 0.61%
[32]
  viability, T/C: 0.63%
[33]
  viability, T/C: 0.56%
[34]
  viability, T/C: 0.52%
[35]
  viability, T/C: 0.59%
[36]
  viability, T/C: 0.74%
[37]
  viability, T/C: 0.46%
[38]
  viability, T/C: 0.45%
[39]
  viability, T/C: 0.39%
[40]
  viability, T/C: 0.43%
[41]
  viability, T/C: 0.43%
[42]
  viability, T/C: 0.39%

## CC1(C)CCC(CN2CCN(c3ccc(C(=O)NS(=O)(=O)c4ccc(NCC5CCOCC5)c([N+](=O)[O-])c4)c(Oc4cnc5[nH]ccc5c4)c3)CC2)=C(c2ccc(Cl)cc2)C1 + CN1CCN(c2cc(C(=O)Nc3cc4cc(-c5cnn(C)c5)ccc4cn3)ccn2)CC1
[1]
  pIC50: 5.19
[2]
  pIC50: 5.20
[3]
  pIC50: 5.24
[4]
  pIC50: > 7.50
[5]
  pIC50: > 7.50
[6]
  pIC50: > 7.50
[7]
  viability, T/C: 93.1%
[8]
  viability, T/C: 104%
[9]
  viability, T/C: 102%
[10]
  viability, T/C: 112%
[11]
  viability, T/C: 113%
[12]
  viability, T/C: 15.2%
[13]
  viability, T/C: 96.4%
[14]
  viability, T/C: 109%
[15]
  viability, T/C: 100%
[16]
  viability, T/C: 109%
[17]
  viability, T/C: 112%
[18]
  viability, T/C: 14.5%
[19]
  viability, T/C: 86.1%
[20]
  viability, T/C: 97%
[21]
  viability, T/C: 89%
[22]
  viability, T/C: 98.6%
[23]
  viability, T/C: 93.8%
[24]
  viability, T/C: 9.92%
[25]
  viability, T/C: 0.68%
[26]
  viability, T/C: 5.6%
[27]
  viability, T/C: 5.7%
[28]
  viability, T/C: 0.77%
[29]
  viability, T/C: 0.88%
[30]
  viability, T/C: 1.46%
[31]
  viability, T/C: 0.9%
[32]
  viability, T/C: 0.86%
[33]
  viability, T/C: 1.07%
[34]
  viability, T/C: 0.81%
[35]
  viability, T/C: 1.05%
[36]
  viability, T/C: 0.73%
[37]
  viability, T/C: 0.67%
[38]
  viability, T/C: 0.49%
[39]
  viability, T/C: 0.43%
[40]
  viability, T/C: 0.49%
[41]
  viability, T/C: 0.56%
[42]
  viability, T/C: 0.29%

## CC1COCCN1c1cc(C2(S(C)(=N)=O)CC2)nc(-c2ccnc3[nH]ccc23)n1 (stereo not given)
Compound 0.0316 µM
  viability, T/C: 101% and 95.8%
Compound 0.1 µM
  viability, T/C: 101% and 91.5%
Compound 0.316 µM
  viability, T/C: 98.3% and 92.1%
Compound 1 µM
  viability, T/C: 101% and 74.8%
Compound 3.16 µM
  viability, T/C: 99.7% and 89.2%
Compound 10 µM
  viability, T/C: 81.4% and 53.9%
Curve of compound
  pIC50: < 5.00

## CCN1CCN(Cc2ccc(Nc3ncc(F)c(-c4cc(F)c5nc(C)n(C(C)C)c5c4)n3)nc2)CC1
Compound 0.00316 µM
  viability, T/C: 100% and 102%
Compound 0.01 µM
  viability, T/C: 86.8% and 96.5%
Compound 0.0316 µM
  viability, T/C: 98.5% and 88%
Compound 0.1 µM
  viability, T/C: 93.8% and 104%
Compound 0.316 µM
  viability, T/C: 94.1% and 98.2%
Compound 1 µM
  viability, T/C: 102% and 64.3%
Curve of compound
  pIC50: < 6.00

## C#Cc1c(F)ccc2cc(O)cc(-c3ncc4c(N5CC6CCC(C5)N6)nc(OCC56CCCN5CC(F)C6)nc4c3F)c12 (stereo not given) + CN1CCN(c2cc(C(=O)Nc3cc4cc(-c5cnn(C)c5)ccc4cn3)ccn2)CC1
[1]
  pIC50: < 5.00
[2]
  pIC50: < 5.00
[3]
  pIC50: < 5.00
[4]
  pIC50: > 7.50
[5]
  pIC50: > 7.50
[6]
  pIC50: > 7.50
[7]
  viability, T/C: 80.6%
[8]
  viability, T/C: 96.9%
[9]
  viability, T/C: 92.9%
[10]
  viability, T/C: 91.9%
[11]
  viability, T/C: 98.1%
[12]
  viability, T/C: 76.8%
[13]
  viability, T/C: 87.4%
[14]
  viability, T/C: 99.8%
[15]
  viability, T/C: 109%
[16]
  viability, T/C: 94.1%
[17]
  viability, T/C: 85.7%
[18]
  viability, T/C: 71.4%
[19]
  viability, T/C: 90.7%
[20]
  viability, T/C: 92%
[21]
  viability, T/C: 102%
[22]
  viability, T/C: 98.5%
[23]
  viability, T/C: 81.9%
[24]
  viability, T/C: 66.4%
[25]
  viability, T/C: 3.8%
[26]
  viability, T/C: 4.61%
[27]
  viability, T/C: 1.85%
[28]
  viability, T/C: 9.57%
[29]
  viability, T/C: 2.33%
[30]
  viability, T/C: 1.27%
[31]
  viability, T/C: 0.59%
[32]
  viability, T/C: 0.56%
[33]
  viability, T/C: 0.97%
[34]
  viability, T/C: 0.63%
[35]
  viability, T/C: 1.43%
[36]
  viability, T/C: 0.5%
[37]
  viability, T/C: 0.45%
[38]
  viability, T/C: 0.45%
[39]
  viability, T/C: 0.43%
[40]
  viability, T/C: 0.39%
[41]
  viability, T/C: 0.39%
[42]
  viability, T/C: 0.8%
